Earlier results on seven compounds are cited in PubChem BioAssay AID1259409 (Chemical Carcinogenesis Research Information System (CCRIS), 2018).

In this series the test system is rodent chemically induced tumor inhibition, incidence and multiplicity. Briefly: CCRIS tumor inhibitor studies.

Regarding `c1ccc(Cn2ccnc2)cc1`, the “tumour outcome (control, treated, inhibition, significance)” value was 87%, 80%, 8%, not calculated (Carcinogen: 7,12-DIMETHYLBENZ[A]ANTHRACENE, 57-97-6, Dose [Inhibitor]: 100 UG IN 0.2 ML ACETONE ONCE 5 MIN BEFORE CARCINOGEN TREATMENT (STUDY DURATION: 31 WK), Route [Inhibitor]: DERMAL, Species: MOUSE, Strain/Sex: CD-1/FEMALE, Target Tissue: Type of Lesion: SKIN: PAPILLOMA, Dose [Carcinogen]: 10 NMOL IN 0.2 ML ACETONE ONCE, Promoter: 12-O-TETRADECANOYLPHORBOL-13-ACETATE, 16561-29-8) and 90%, 78%, 13%, not calculated (Carcinogen: BENZO[A]PYRENE, 50-32-8, Dose [Inhibitor]: 100 UG IN 0.2 ML ACETONE ONCE 5 MINUTES BEFORE CARCINOGEN TREATMENT (STUDY DURATION: 31 WK), Route [Inhibitor]: DERMAL, Species: MOUSE, Strain/Sex: CD-1/FEMALE, Target Tissue: Type of Lesion: SKIN: PAPILLOMA, Dose [Carcinogen]: 400 NMOL IN 0.2 ML ACETONE ONCE, Promoter: 12-O-TETRADECANOYLPHORBOL-13-ACETATE, 16561-29-8).
Regarding `CCCCCCCCCCCCCCCC(=O)OC[C@@]1(O)C[C@@]23CC[C@@H]4c5ccoc5CC[C@@]4(C)[C@@H]2CC[C@@H]1C3`, the “tumour outcome (control, treated, inhibition, significance)” value (Carcinogen: 7,12-DIMETHYLBENZ[A]ANTHRACENE, 57-97-6, Dose [Inhibitor]: 0, 60 MG 1/D FOR 3 D BEGINNING 3 D PRIOR TO CARCINOGEN DOSE (STUDY DURATION: 20 WK), Route [Inhibitor]: GAVAGE, Species: RAT, Strain/Sex: SPRAGUE-DAWLEY/FEMALE, Target Tissue: Type of Lesion: MAMMARY GLAND: TUMOR, Dose [Carcinogen]: 12 MG IN 1 ML OLIVE OIL ONCE, Promoter: NONE USED) is on record as 84%, 69%, 18%, not significant.
Regarding `CN=C(NC#N)NCCSCc1nc[nH]c1C`, the “tumour outcome (control, treated, inhibition, significance)” value is on record as 95%, 100%, -5%, not calculated (Carcinogen: 7,12-DIMETHYLBENZ[A]ANTHRACENE, 57-97-6, Dose [Inhibitor]: 0, 10 MG A WK IN DRINKING WATER BEGINNING 1 WK POST CARCINOGEN DOSE AND CONTINUING FOR DURATION OF STUDY (STUDY DURATION, Route [Inhibitor]: ORAL, Species: MOUSE, Strain/Sex: SENCAR/MALE, Target Tissue: Type of Lesion: SKIN: PAPILLOMA, Dose [Carcinogen]: 100 NMOL IN 200 µL ACETONE ONCE, Promoter: 12-O-TETRADECANOYLPHORBOL-13-ACETATE, 16561-29-8); 12/19 (63%), 13/19 (68%), -8%, not calculated (Carcinogen: N-METHYL-N'-NITRO-N-NITROSOGUANIDINE, 70-25-7, Dose [Inhibitor]: 10 MG/KG BW IN DEPOT FORM 1/2 D BEGINNING 1 WK POST LAST CARCINOGEN DOSE FOR DURATION OF STUDY (STUDY DURATION: 52 WK), Route [Inhibitor]: SUBCUTANEOUS, Species: RAT, Strain/Sex: WISTAR/MALE, Target Tissue: Type of Lesion: STOMACH: ADENOCARCINOMA, Dose [Carcinogen]: 50 UG/ML IN DRINKING WATER FOR 25 WK, Promoter: NONE USED); 12/19 (63%), 11/19 (58%), 8%, not calculated (Carcinogen: N-METHYL-N'-NITRO-N-NITROSOGUANIDINE, 70-25-7, Dose [Inhibitor]: 20 MG/KG BW IN DEPOT FORM 1/2 D BEGINNING 1 WK POST LAST CARCINOGEN DOSE FOR DURATION OF STUDY (STUDY DURATION: 52 WK), Route [Inhibitor]: SUBCUTANEOUS, Species: RAT, Strain/Sex: WISTAR/MALE, Target Tissue: Type of Lesion: STOMACH: ADENOCARCINOMA, Dose [Carcinogen]: 50 UG/ML IN DRINKING WATER FOR 25 WK, Promoter: NONE USED).
Take `CCCCCCCCCCCCCCCC(=O)OCC(COC(=O)CCCCCCCCCCCCCCC)OC(=O)CCCCCCCCCCCCCCC`: for the setting “Carcinogen: DIMETHYLBENZANTHRACENE, 57-97-6, Dose [Inhibitor]: APPLIED 3 MIN POST EACH PROMOTER DOSE 3/WK FOR 20 WK BEGINNING 3 D POST CARCINOGEN DOSE (STUDY DURATION: 20 WK), Route [Inhibitor]: DERMAL, Species: MOUSE, Strain/Sex: SWISS/?, Target Tissue: Type of Lesion: SKIN: TUMOR, Dose [Carcinogen]: 250 UG/0.25 ML ONCE, Promoter: CROTON OIL, 8001-28-3”, the “tumour outcome (control, treated, inhibition, significance)” value is listed as 100%, 25%, 75%, not calculated.
As for `COc1ccc(-c2coc3cc(O)cc(O)c3c2=O)cc1`, the “tumour outcome (control, treated, inhibition, significance)” value is, setting by setting: (Carcinogen: BENZO[A]PYRENE, 50-32-8, Dose [Inhibitor]: 0, 0.125 MG IN 0.1 ML DMSO 3/WK FOR 6 WK AFTER WEANING (STUDY DURATION: 9 WK), Route [Inhibitor]: INTRAPERITONEAL, Species: MOUSE, Strain/Sex: SWISS WEBSTER/MALE, FEMALE, Target Tissue: Type of Lesion: LUNG: ADENOMA, Dose [Carcinogen]: 0.5 MG IN AQUEOUS GELATIN WITHIN 24 HRS AFTER BIRTH, Promoter: NONE USED) 20/35 (57%), 2/16 (13%), 77%, p<0.01; (Carcinogen: BENZO[A]PYRENE, 50-32-8, Dose [Inhibitor]: 0, 0.125 MG IN 0.1 ML DMSO 3/WK FOR 6 WK AFTER WEANING (STUDY DURATION: 9 WK), Route [Inhibitor]: INTRAPERITONEAL, Species: MOUSE, Strain/Sex: SWISS/FEMALE, Target Tissue: Type of Lesion: LUNG: ADENOMA, Dose [Carcinogen]: 0.5 MG IN 1% AQUEOUS GELATIN TO 24 HR OLD MICE ONCE, Promoter: NONE USED) 11/19 (58%), 2/16 (13%), 78%, p<0.01; (Carcinogen: BENZO[A]PYRENE, 50-32-8, Dose [Inhibitor]: 0, 500 MG/KG IN 0.1 ML DMSO 2 D PRIOR TO EACH CARCINOGEN DOSE 1/WK FOR 4 WK (STUDY DURATION: 30 WK), Route [Inhibitor]: GAVAGE, Species: MOUSE, Strain/Sex: SWISS/FEMALE, Target Tissue: Type of Lesion: FORESTOMACH: CARCINOMA, Dose [Carcinogen]: 3 MG IN 0.2 ML CORN OIL 1/WK FOR 4 WK, Promoter: NONE USED) 13/26 (50%), 4/24 (17%), 66%, p<0.02; (Carcinogen: BENZO[A]PYRENE, 50-32-8, Dose [Inhibitor]: 0, 500 MG/KG IN 0.1 ML DMSO 2 D PRIOR TO EACH CARCINOGEN DOSE 1/WK FOR 4 WK (STUDY DURATION: 30 WK), Route [Inhibitor]: GAVAGE, Species: MOUSE, Strain/Sex: SWISS/FEMALE, Target Tissue: Type of Lesion: FORESTOMACH: PAPILLOMA, Dose [Carcinogen]: 3 MG IN 0.2 ML CORN OIL 1/WK FOR 4 WK, Promoter: NONE USED) 25/26 (96%), 21/24 (88%), 8%, not calculated; (Carcinogen: BENZO[A]PYRENE, 50-32-8, Dose [Inhibitor]: 0, 500 MG/KG IN 0.1 ML DMSO 2 D PRIOR TO EACH CARCINOGEN DOSE 1/WK FOR 4 WK (STUDY DURATION: 30 WK), Route [Inhibitor]: GAVAGE, Species: MOUSE, Strain/Sex: SWISS/FEMALE, Target Tissue: Type of Lesion: LUNG: ADENOMA, Dose [Carcinogen]: 3 MG IN 0.2 ML CORN OIL 1/WK FOR 4/WK, Promoter: NONE USED) 24/26 (92%), 20/24 (83%), 10%, not calculated; (Carcinogen: N-METHYL-N-NITROSOUREA, 684-93-5, Dose [Inhibitor]: 0, 10 MG/KG IN DIET FOR DURATION OF STUDY BEGINNING POST CARCINOGEN DOSE (STUDY DURATION: 18 WK), Route [Inhibitor]: ORAL, Species: RAT, Strain/Sex: SPRAGUE-DAWLEY/FEMALE, Target Tissue: Type of Lesion: MAMMARY GLAND: TUMOR, Dose [Carcinogen]: 40 MG/KG BW ONCE, Promoter: NONE USED) 16/20 (80%), 11/19 (58%), 28%, not calculated. The “tumour outcome (control, treated, inhibition, significance)” value (Carcinogen: N-METHYL-N-NITROSOUREA, 684-93-5, Dose [Inhibitor]: 0, 50 MG/KG IN DIET FOR DURATION OF STUDY BEGINNING POST CARCINOGEN DOSE (STUDY DURATION: 18 WK), Route [Inhibitor]: ORAL, Species: RAT, Strain/Sex: SPRAGUE-DAWLEY/FEMALE, Target Tissue: Type of Lesion: MAMMARY GLAND: TUMOR, Dose [Carcinogen]: 40 MG/KG BW ONCE, Promoter: NONE USED) is 16/20 (80%), 6/19 (32%), 60%, p<0.01.
As for `CN(C)C(=O)COC(=O)Cc1ccc(OC(=O)c2ccc(N=C(N)N)cc2)cc1`, the “tumour outcome (control, treated, inhibition, significance)” value (Carcinogen: N-NITROSOBIS(2-OXOPROPYL)AMINE, 60599-38-4, Dose [Inhibitor]: 0, 500 PPM IN DIET FOR 5 WK DURING CARCINOGEN TREATMENT (STUDY DURATION: 30 WK), Route [Inhibitor]: ORAL, Species: HAMSTER, Strain/Sex: SYRIAN/FEMALE, Target Tissue: Type of Lesion: PANCREAS: ADENOCARCINOMA, Dose [Carcinogen]: 10 MG/KG 1/WK FOR 5 WK, Promoter: NONE USED) is 24/30 (80%), 18/32 (56%), 30%, p<0.05.
In the case of `CC(C)(C)c1cc(COCc2cc(C(C)(C)C)c(O)c(C(C)(C)C)c2)cc(C(C)(C)C)c1O`, the “tumour outcome (control, treated, inhibition, significance)” value (Carcinogen: BENZO[A]PYRENE, 50-32-8, Dose [Inhibitor]: 0.03 MMOL/G OF DIET DAILY STARTING 7 D BEFORE AND CONTINUING THROUGH 3 D AFTER CARCINOGEN TREATMENT FOLLOWED BY OBSERVAT, Route [Inhibitor]: ORAL, Species: MOUSE, Strain/Sex: ICR/FEMALE, Target Tissue: Type of Lesion: FORESTOMACH: NEOPLASM, Dose [Carcinogen]: 1 MG IN 0.2 ML CORN OIL 2/WK FOR 4 WK, Promoter: NONE USED) is given as 94%, 95%, -1%, not significant.
